Structures are written as SMILES. Like-named read-outs stand apart in the source and are kept apart here.

Test [1] addresses T1, Her2 (Homo sapiens, UniProt P04626).
T1 construct: fused on or other part: P00533 (Epidermal growth factor receptor)
In words: HER-2 ELISA: EGF receptor-HER2 chimeric receptor assay in whole cells (HER2 kinase). Format: cell-based. The following applies: NIH3T3 cells with EGFR/HER2 chimeric receptor, phosphotyrosine ELISA. As to the method:
Assay 1: EGF Receptor-HER2 Chimeric Receptor Assay In Whole Cells.
HER2 kinase activity in whole EGFR-NIH3T3 cells was measured as described below:
1. An NIH3T3 cell line overexpressing a chimeric receptor containing the EGFR extracellular domain and intracellular HER2 kinase domain can be used for this assay.
3. Resuspend cells in seeding medium (DMEM, 0.5% bovine serum), and count the cells using trypan blue. Viability above 90% is acceptable. Seed cells in DMEM medium (0.5% bovine serum) at a density of 10,000 cells per well, 100 μL per well, in a 96 well microtiter plate. Incubate seeded cells in 5% CO2 at 37° C. for about 40 hours.
1. Check seeded cells for contamination using an inverted microscope. Dilute drug stock (10 mg/mL in DMSO) 1:10 in DMEM medium, then transfer 5 μL to a TBST well for a final drug dilution of 1:200 and a final DMSO concentration of 1%. Control wells receive DMSO alone. Incubate in 5% CO2 at 37° C. for two hours.
2. Prepare EGF ligand: dilute stock EGF in DMEM so that upon transfer of 10 μL dilute EGF (1:12 dilution), 100 nM final concentration is attained.
4. After 120 minutes incubation with drug, add prepared […] ligand to cells, 10 μL per well, to a final concentration of 100 nM. Control wells receive DMEM alone. Incubate, shaking, at room temperature, for 5 minutes.
5. Remove drug, EGF, and DMEM. Wash cells twice with PBS. Transfer HNTG* to cells, 100 μL per well. Place on ice for 5 minutes. Meanwhile, remove blocking buffer from other ELISA plate and wash with TBST as described above.
6. With a pipette tip securely fitted to a micropipettor, scrape cells from plate and homogenize cell material by repeatedly aspirating and dispensing the HNTG* lysis buffer. Transfer lysate to a coated, blocked, and washed ELISA plate. Incubate shaking at room temperature for one hour.
7. Remove lysate and wash 4 times with TBST. Transfer freshly diluted anti-Ptyr antibody to ELISA plate at 100 μL per well. Incubate shaking at room temperature for 30 minutes in the presence of the anti-Ptyr antiserum (1:3000 dilution in TBST).
8. Remove the anti-Ptyr antibody and wash 4 times with TBST. Transfer the freshly diluted TAGO anti-rabbit IgG antibody to the ELISA plate at 100 μL per well. Incubate shaking at room temperature for 30 minutes (anti-rabbit IgG antibody: 1:3000 dilution in TBST).
9. Remove TAGO detection antibody and wash 4 times with TBST. Transfer freshly prepared ABTS/H2O2 solution to ELISA plate, 100 μL per well. Incubate shaking at room temperature for 20 minutes. (ABTS/H2O2 solution: 1.0 μL 30% H2O2 in 10 mL ABTS stock).
10. Stop reaction by adding 50 μL 5N H2SO4 (optional), and determine O.D. at 410 nm.
11. The maximal phosphotyrosine signal is determined by subtracting the value of the negative controls from the positive controls. The percent inhibition of phosphotyrosine content for extract-containing wells is then calculated, after subtraction of the negative controls.
(In an ELISA, binding on a coated surface is turned into a signal by an enzyme label.)

The test system of the next test is SKOV3. Briefly: SKOV3 growth. Format: cell-based. Conditions: Homo sapiens, SK-OV-3, SKOV3 cells.
The test system of the next test is A431. In words: A431 growth. Format: cell-based. Conditions: Homo sapiens, A-431, A431 cells.
A further test deals with PDGFR (Homo sapiens, UniProt P09619). Briefly: Biochemical PDGFR assay (ELISA). The arrangement: expressed in transfected cells; host or cells: NIH 3T3. The following applies: read-out: PDGFr biochem IC50. As to the method:
This assay measures the in vitro kinase activity of PDGFR using ELISA.
6. PDGFR-β expressing NlH 3T3 cell lysate.
1. Coat Corning 96 well ELISA plates with 0.5 μg 28D4C10 in 100 μL PBS per well, store overnight at 4° C.
5. Dilute lysate in HNTG (10 μg lysate/100 μL HNTG)
(§1) 6. Add 100 μL of diluted lysate to each well. Shake at room temperature for 60 min.
8. Add 80 μL working kinase buffer mix to ELISA plate containing captured PDGFR.
9. Dilute test compound 1:10 in TBS in 96-well polypropylene plates (i.e., 10 μL compound+90 μL TBS).
10. Add 10 μL diluted test compound to ELISA plate.
11. Incubate for 30 minutes while shaking at room temperature.
12. Add 10 μL ATP directly to all wells except negative control well (final well volume should be approximately 100 μL with 20 μM ATP in each well.) Incubate 30 minutes while shaking.
13. After 30 minutes, stop reaction by adding 10 μL of 200 mM EDTA (pH 8.0) to each well.
(§2) 15. Add 100 μL anti-phosphotyrosine (1:3000 dilution in TBST) per well. Incubate 30-45 min. at room temperature, with shaking.
(§3) 17. Add 100 μL Biosource Goat anti-rabbit IgG peroxidase conjugate (1:2000 dilution in TBST) to each well. Incubate 30 min. at room temperature, with shaking.
(§4) 19. Add 100 μL of ABTS/H2O2 solution to each well.
22. Read assay on Dynatech MR7000 ELISA reader: test filter: 410 nM, reference filter: 630 nM.

In another test the target is EGFR (Homo sapiens, UniProt P00533). In words: Biochemical EGFR assay (ELISA). The arrangement: A431 cell lysate; endogenous in cells; host or cells: A431. The following applies: read-out: EGFr biochem IC50. As to the method:
This assay measures the in vitro kinase activity of EGFR using ELISA.
1. Coat Coming 96 well ELISA plates with 0.5 μg SUMOl in 100 μL PBS per well, store overnight at 4° C.
5. Dilute lysate in PBS (7 μg lysate/100 μL PBS).
as §1
8. Add 120 μL TBS to ELISA plate containing captured EGFR.
9. Dilute test compound 1:10 in TBS in 96-well polypropylene plates (ie. 10 μL compound+90 μL TBS).
10. Add 13.5 μL diluted test compound to ELISA plate.
13. After 5 minutes, stop reaction by adding 16.5 μL of 200 mM EDTA (pH 8.0) to each well, shaking continuously. After the EDTA has been added, shake for 1 mm.
as §2, §3, §4
22. Read assay on Dynatech MR7000 ELISA reader. Test Filter: 410 nM Reference Filter: 630 Nm.

For test [2], the target named is T1, Her2. In words: EGF-induced Her2-driven BrdU incorporation. Type of test: cell-based. Conditions: Table 7; 3T3 cells with EGF-R/Her2 chimeric receptor, EGF 2 nM; read-out: BrdU DNA syn. HER2 IC50. As to the method:
The cellular/biologic assays described herein measure the amount of DNA made in response to activation of a test kinase, which is a general measure of a proliferative response. The general procedure for this assay is as follows: a compound is introduced to cells expressing the test kinase, either naturally or recombinantly, for some period of time after which, if the test kinase is a receptor, a ligand known to activate the receptor is added. After incubation at least overnight, a DNA labeling reagent such as Bromodeoxy-uridine (BrdU) or 3H-thymidine is added. The amount of labeled DNA is detected with either an anti-BrdU antibody or by measuring radioactivity and is compared to control cells not contacted with a test compound.
EGF-Induced Her2-Driven BrdU Incorporation
(8) 3T3 cell line engineered to express a chimeric receptor having the extra-cellular domain of EGF-R and the intra-cellular domain of Her2.
(1) Cells are seeded at 8000 cells/well in DMEM, 10% CS, 2 mM Gln in a 96-well plate. Cells are incubated overnight at 37° C. in 5% CO2.
(2) After 24 hours, the cells are washed with PBS, and then are serum starved in serum free medium (0% CS DMEM with 0.1% BSA) for 24 hours.
(3) On day 3, ligand (EGF=2 nM, prepared in DMEM with 0.1% BSA) and test compounds are added to the cells simultaneously. The negative control wells receive serum free DMEM with 0.1% BSA only; the positive control cells receive the ligand (EGF) but no test compound. Test compounds are prepared in serum free DMEM with ligand in a 96 well plate, and serially diluted for 7 test concentrations.
(4) After 20 hours of ligand activation, diluted BrdU labeling reagent (1:100 in DMEM, 0.1% BSA) is added and the cells are incubated with BrdU (final concentration=[…]) for 1.5 hours.
(10) The absorbance of the samples are measured at 410 nm (in “dual wavelength” mode with a filter reading at 490 nm, as a reference wavelength) on a Dynatech ELISA plate reader.

Setting [3] is: Table 5, in vitro kinase activity.
The mark [4] stands for this setting: Table 7, in vitro kinase activity.

T1 sequence (P04626 676-1255 limits assumed): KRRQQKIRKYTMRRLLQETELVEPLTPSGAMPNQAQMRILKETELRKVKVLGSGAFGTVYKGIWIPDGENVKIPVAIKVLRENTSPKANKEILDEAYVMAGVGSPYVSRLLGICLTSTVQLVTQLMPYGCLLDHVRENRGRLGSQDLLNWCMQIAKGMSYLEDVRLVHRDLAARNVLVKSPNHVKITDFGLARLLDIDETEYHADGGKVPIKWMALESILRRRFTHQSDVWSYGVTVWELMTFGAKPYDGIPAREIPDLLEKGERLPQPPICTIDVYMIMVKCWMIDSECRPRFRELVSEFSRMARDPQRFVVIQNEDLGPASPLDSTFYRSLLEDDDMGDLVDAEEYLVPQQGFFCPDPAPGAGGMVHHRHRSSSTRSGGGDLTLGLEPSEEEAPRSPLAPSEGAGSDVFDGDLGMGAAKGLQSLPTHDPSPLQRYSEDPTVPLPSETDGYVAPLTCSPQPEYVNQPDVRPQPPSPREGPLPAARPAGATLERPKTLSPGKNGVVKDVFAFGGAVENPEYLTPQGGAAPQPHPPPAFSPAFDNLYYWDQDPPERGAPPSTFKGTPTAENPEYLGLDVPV
EGFR, sequence (P00533 25-1210): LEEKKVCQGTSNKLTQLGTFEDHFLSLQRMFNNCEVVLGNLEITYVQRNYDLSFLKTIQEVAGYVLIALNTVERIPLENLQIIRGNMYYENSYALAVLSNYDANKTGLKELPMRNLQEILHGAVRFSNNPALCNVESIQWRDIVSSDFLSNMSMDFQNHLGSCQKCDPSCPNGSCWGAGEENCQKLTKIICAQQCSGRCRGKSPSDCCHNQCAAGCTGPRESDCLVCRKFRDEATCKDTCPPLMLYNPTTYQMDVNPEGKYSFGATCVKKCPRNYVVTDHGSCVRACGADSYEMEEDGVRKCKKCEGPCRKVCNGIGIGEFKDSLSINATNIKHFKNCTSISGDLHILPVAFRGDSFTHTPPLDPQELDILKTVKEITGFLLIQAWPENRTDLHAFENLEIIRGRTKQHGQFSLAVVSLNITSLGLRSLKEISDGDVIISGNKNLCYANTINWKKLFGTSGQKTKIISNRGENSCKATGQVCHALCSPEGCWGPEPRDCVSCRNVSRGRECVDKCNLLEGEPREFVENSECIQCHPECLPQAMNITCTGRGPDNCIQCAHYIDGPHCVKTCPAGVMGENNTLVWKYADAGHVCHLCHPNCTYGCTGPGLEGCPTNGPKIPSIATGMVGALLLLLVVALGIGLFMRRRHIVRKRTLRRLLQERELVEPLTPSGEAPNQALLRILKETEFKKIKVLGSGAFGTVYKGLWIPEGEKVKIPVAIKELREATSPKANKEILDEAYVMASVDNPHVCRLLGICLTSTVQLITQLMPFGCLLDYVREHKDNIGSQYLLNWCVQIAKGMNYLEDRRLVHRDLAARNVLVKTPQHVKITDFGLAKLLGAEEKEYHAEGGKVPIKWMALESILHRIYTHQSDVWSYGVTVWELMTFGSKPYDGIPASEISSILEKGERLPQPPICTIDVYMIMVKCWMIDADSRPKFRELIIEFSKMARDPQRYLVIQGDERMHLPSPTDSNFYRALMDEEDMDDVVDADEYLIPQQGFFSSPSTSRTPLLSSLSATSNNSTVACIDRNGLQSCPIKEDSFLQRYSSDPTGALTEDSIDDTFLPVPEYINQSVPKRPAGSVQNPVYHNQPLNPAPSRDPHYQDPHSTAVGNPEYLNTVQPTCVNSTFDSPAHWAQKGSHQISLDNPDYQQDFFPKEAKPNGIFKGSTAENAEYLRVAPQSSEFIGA
PDGFR, sequence (P09619 33-1106): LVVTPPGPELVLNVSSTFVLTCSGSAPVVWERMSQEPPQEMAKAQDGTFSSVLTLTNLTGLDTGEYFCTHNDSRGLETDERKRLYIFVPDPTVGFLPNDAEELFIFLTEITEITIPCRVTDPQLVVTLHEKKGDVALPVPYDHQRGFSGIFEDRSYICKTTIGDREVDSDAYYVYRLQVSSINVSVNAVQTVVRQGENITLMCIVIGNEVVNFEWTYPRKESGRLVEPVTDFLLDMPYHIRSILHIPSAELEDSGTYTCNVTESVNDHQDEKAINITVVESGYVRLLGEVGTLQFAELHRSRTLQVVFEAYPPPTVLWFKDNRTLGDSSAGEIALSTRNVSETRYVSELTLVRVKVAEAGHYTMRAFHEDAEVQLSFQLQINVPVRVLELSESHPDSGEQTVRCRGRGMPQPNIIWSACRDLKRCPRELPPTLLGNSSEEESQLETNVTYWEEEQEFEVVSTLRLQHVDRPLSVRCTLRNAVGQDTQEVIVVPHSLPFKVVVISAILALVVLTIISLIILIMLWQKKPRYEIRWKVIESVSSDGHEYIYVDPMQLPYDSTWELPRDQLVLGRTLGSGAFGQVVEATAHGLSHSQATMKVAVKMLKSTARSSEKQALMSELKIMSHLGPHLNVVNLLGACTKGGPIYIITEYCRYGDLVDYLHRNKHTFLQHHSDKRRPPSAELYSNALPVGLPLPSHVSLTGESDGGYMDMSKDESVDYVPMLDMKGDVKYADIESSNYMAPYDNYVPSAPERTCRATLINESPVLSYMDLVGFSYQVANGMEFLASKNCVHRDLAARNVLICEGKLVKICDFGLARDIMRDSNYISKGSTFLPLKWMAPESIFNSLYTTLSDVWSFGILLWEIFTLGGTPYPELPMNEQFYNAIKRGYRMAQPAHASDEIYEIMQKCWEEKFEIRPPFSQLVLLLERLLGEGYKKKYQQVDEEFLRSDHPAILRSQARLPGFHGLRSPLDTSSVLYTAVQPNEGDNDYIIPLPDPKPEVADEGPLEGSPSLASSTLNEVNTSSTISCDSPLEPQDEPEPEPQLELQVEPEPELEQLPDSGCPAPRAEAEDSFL

With `COc1cc(C)c(CC2C(=O)Nc3ccccc32)cc1C(C)C` (stereo not shown) [AAI-9, 3-(5-Isopropyl-4-methoxy-2-methylbenzyl)-1,3-dihydroindol-2-one], the IC50 (usually the point on the concentration scale where inhibition reaches its midpoint) was above 100 µM at Her2 [1] (Table 5); 5.2 µM in the test on SKOV3 (Table 5); 5.25 µM in the test with A431 (Table 5); above 100 µM on PDGFR (setting [3]); above 100 µM on EGFR (setting [3]).
For the compound `O=C1Nc2cccc(CCO)c2C1Cc1ccccc1` (stereo not shown) [AAI-12, 3-Benzyl-4-(2-hydroxyethyl)-1,3-dihydroindol-2-one], the IC50 was above 100 µM against Her2 [1] (Table 5); above 50 µM in the test on SKOV3 (Table 5); above 50 µM with A431 (Table 5); above 100 µM at PDGFR (setting [3]); above 100 µM on EGFR (setting [3]).
Turning to `O=C1Nc2cccc(CCO)c2/C1=C/c1ccc2[nH]ccc2c1` [IN-007, 4-(2-Hydroxy-ethyl)-3-(1H-indol-5-ylmethylene)-1,3-dihydro-indol-2-one], the IC50 against Her2 [1] (Table 7) is 22.7 µM; in the test on SKOV3 (Table 7), 9.7 µM; in the test with A431 (Table 7), 4.2 µM; at PDGFR (setting [4]) it was above 100 µM; at EGFR (setting [4]), above 100 µM.
`Cc1[nH]c(/C=C2\C(=O)Nc3cccc(CCO)c32)c(C)c1CCCN(C)C` [IN-009, 3-[4-(3-Dimethylamino-propyl)-3,5-dimethyl-1H-pyrrol-2-ylmethylene]-4-(2-hydroxy-ethyl)-1,3-dihydro-indol-2-one]: the IC50 on Her2 [1] (Table 7) was above 100 µM; with SKOV3 (Table 7), 25.2 µM; in the test with A431 (Table 7), 13.6 µM; at Her2 [2], 4.2 µM; at EGFR (setting [4]), above 100 µM.
For the compound `O=C1Cc2c(CCOC(=O)NC3CCCCC3)cccc2N1` [IN-013, Cyclohexyl-carbamic acid 2-(2-oxo-2,3-dihydro-1H-indol-4-yl)-ethyl ester], the IC50 against Her2 [1] (Table 7) was above 100 µM; with SKOV3 (Table 7), above 50 µM; in the test on A431 (Table 7), above 50 µM; on EGFR (setting [4]), above 100 µM.
In the case of `O=C1Cc2c(CCOC(=O)NS(=O)(=O)c3ccccc3)cccc2N1` [IN-014, Benzene sulfonyl-carbamic acid 2-(2-oxo-2,3-dihydro-1H-indol-4-yl)-ethyl ester], the IC50 on Her2 [1] (Table 7) is above 100 µM; in the test on SKOV3 (Table 7) it was above 50 µM; in the test on A431 (Table 7), above 50 µM; at EGFR (setting [4]), above 100 µM.
On to `O=C1Cc2c(CCOC(=O)Nc3ccccc3-c3ccccc3)cccc2N1` [IN-015, Biphenyl-2-yl-carbamic acid 2-(2-oxo-2,3-dihydro-1H-indol-4-yl)-ethyl ester], for which the IC50 is above 100 µM against Her2 [1] (Table 7), 20.5 µM in the test with SKOV3 (Table 7), 21 µM in the test on A431 (Table 7) and above 100 µM on EGFR (setting [4]).
On to `CCNC(=O)OCCc1cccc2c1CC(=O)N2` [IN-016, Ethyl-carbamic acid 2-(2-oxo-2,3-dihydro-1H-indol-4-yl)-ethyl ester], for which the IC50 at Her2 [1] (Table 7) is above 100 µM; with SKOV3 (Table 7), above 50 µM; with A431 (Table 7), above 50 µM; at EGFR (setting [4]) it was above 100 µM.
Take `CC(C)c1ccc(OCCc2cccc3c2CC(=O)N3)cc1` [IN-020, 4-[2-(4-Isopropyl-phenoxy)-ethyl]-1,3-dihydro-indol-2-one]: the IC50 against Her2 [1] (Table 7) is above 100 µM; with SKOV3 (Table 7), above 50 µM; with A431 (Table 7) it was 15.2 µM; at EGFR (setting [4]), above 100 µM.
